From patent US20240287076A1, “COMPOUNDS FOR TARGETING DEGRADATION OF BRUTON'S TYROSINE KINASE” (BIOGEN MA INC., priority 2021, published 2024)

target: T1, BTK (Homo sapiens, UniProt Q06187); experiment: BTK degradation assay using the HiBiT Method (Nano-Glo HiBiT Lytic Assay, GM01501.3 cells); format: cell-based; conditions: HiBiT Degradation on GM01501.3 BTK @ 6 hours
T1 construct: The GM01501.3 cell line endogenously expresses BTK with a HiBiT fusion tag via CRISPR knock-in at its C-terminal region; endogenous in cells; host or cells: GM01501.3 (GM01501 cells engineered by CRISPR knock-in of HiBiT at the BTK locus)
How it was run: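 CRISPR knock-in GM01501.3 cells expressing endogenous BTK with C-terminal HiBiT tag, treated 6 h at 37 °C with compounds, 11-point half-log titration from 10 μM top, duplicates. Remaining BTK quantified by Nano-Glo HiBiT lytic luminescence versus DMSO controls; DC50 reported.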

T1 sequence (Q06187 whole entry, the tested form may be a part): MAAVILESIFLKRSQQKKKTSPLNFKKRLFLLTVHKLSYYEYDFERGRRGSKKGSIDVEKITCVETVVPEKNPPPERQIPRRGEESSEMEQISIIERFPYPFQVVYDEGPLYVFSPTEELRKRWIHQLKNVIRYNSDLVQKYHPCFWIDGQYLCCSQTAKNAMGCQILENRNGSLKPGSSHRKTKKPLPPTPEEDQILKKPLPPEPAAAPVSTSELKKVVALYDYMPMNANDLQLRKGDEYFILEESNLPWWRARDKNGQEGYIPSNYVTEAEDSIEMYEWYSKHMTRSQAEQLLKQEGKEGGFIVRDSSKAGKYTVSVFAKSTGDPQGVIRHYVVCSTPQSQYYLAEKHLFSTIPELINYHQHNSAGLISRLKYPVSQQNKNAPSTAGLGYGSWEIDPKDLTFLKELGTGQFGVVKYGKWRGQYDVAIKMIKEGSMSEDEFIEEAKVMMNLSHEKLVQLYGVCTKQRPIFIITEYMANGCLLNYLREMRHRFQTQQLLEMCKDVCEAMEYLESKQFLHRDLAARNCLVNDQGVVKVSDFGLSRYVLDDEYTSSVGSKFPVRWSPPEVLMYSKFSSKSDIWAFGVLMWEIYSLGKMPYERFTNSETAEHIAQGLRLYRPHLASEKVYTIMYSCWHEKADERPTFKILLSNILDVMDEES

Cc1cc(-c2ncnn3cc(-c4ccc(CNC5CCc6cc(NC7CCC(=O)NC7=O)ccc6C5)cc4)cc23)ccc1CNC(=O)c1noc(C(C)(C)C)n1 (stereo not drawn) [Example 202, 5-(tert-butyl)-N-(4-(6-(4-(((6-((2,6-dioxopiperidin-3-yl)amino)-1,2,3,4-tetrahydronaphthalen-2-yl)amino)methyl)phenyl)pyrrolo[2,1-f][1,2,4]triazin-4-yl)-2-methylbenzyl)-1,2,4-oxadiazole-3-carboxamide] and Cc1cc(-c2ncnn3cc(-c4ccc(CN5CCOCC(n6cc(NC7CCC(=O)NC7=O)cn6)C5)cc4)cc23)ccc1CNC(=O)c1noc(C(C)(C)C)n1 (stereo not drawn) [Example 203, 5-(tert-butyl)-N-(4-(6-(4-((6-(4-((2,6-dioxopiperidin-3-yl)amino)-1H-pyrazol-1-yl)-1,4-oxazepan-4-yl)methyl)phenyl)pyrrolo[2,1-f][1,2,4]triazin-4-yl)-2-methylbenzyl)-1,2,4-oxadiazole-3-carboxamide] cannot be ordered by DC50: under 100 nM for the first, under 100 nM for the second.

Compared with COc1cc(CN2CCC(c3ccc(C4CCC(=O)NC4=O)cc3)CC2)ccc1OCCOc1cccc(-c2cc3c(-c4ccc(CNC(=O)c5noc(C(C)(C)C)n5)c(C)c4)ncnn3c2)c1 (stereo not drawn) [Example 204], Cc1cc(-c2ncnn3cc(-c4cnc(Oc5ccc(CN6CCC(c7ccc(C8CCC(=O)NC8=O)cc7)CC6)cc5)nc4)cc23)ccc1CNC(=O)c1noc(C(C)(C)C)n1 (stereo not drawn) [Example 206, 5-(tert-butyl)-N-(4-(6-(2-(4-((4-(4-(2,6-dioxopiperidin-3-yl)phenyl)piperidin-1-yl)methyl)phenoxy)pyrimidin-5-yl)pyrrolo[2,1-f][1,2,4]triazin-4-yl)-2-methylbenzyl)-1,2,4-oxadiazole-3-carboxamide] is lower in DC50: 100 to 500 nM for the first, under 100 nM for the second.

Cc1cc(-c2ncnn3cc(-c4cccc(-n5cc(CN6CCC(c7ccc(C8CCC(=O)NC8=O)cc7)CC6)c(C)n5)c4)cc23)ccc1CNC(=O)c1noc(C(C)(C)C)n1 (stereo not drawn) [Example 205, 5-(tert-butyl)-N-(4-(6-(3-(4-((4-(4-(2,6-dioxopiperidin-3-yl)phenyl)piperidin-1-yl)methyl)-3-methyl-1H-pyrazol-1-yl)phenyl)pyrrolo[2,1-f][1,2,4]triazin-4-yl)-2-methylbenzyl)-1,2,4-oxadiazole-3-carboxamide] and Cc1cc(-c2ncnn3cc(-c4ccn5cc(CN6CCC(c7ccc(C8CCC(=O)NC8=O)cc7)CC6)nc5c4)cc23)ccc1CNC(=O)c1noc(C(C)(C)C)n1 (stereo not drawn) [Example 211, 5-(tert-butyl)-N-(4-(6-(2-((4-(4-(2,6-dioxopiperidin-3-yl)phenyl)piperidin-1-yl)methyl)imidazo[1,2-a]pyridin-7-yl)pyrrolo[2,1-f][1,2,4]triazin-4-yl)-2-methylbenzyl)-1,2,4-oxadiazole-3-carboxamide] cannot be ordered by DC50: under 100 nM for the first, under 100 nM for the second.

Cc1cc(-c2ncnn3cc(-c4cccc(C(C)CN5CCC(c6ccc(C7CCC(=O)NC7=O)cc6)CC5)c4)cc23)ccc1CNC(=O)c1noc(C(C)(C)C)n1 (stereo not drawn) [Example 207, 5-(tert-butyl)-N-(4-(6-(3-(1-(4-(4-(2,6-dioxopiperidin-3-yl)phenyl)piperidin-1-yl)propan-2-yl)phenyl)pyrrolo[2,1-f][1,2,4]triazin-4-yl)-2-methylbenzyl)-1,2,4-oxadiazole-3-carboxamide] and Cc1cc(-c2ncnn3cc(-c4cccc(CN5CCC(c6ccc(C7CCC(=O)NC7=O)cc6)CC5)n4)cc23)ccc1CNC(=O)c1noc(C(C)(C)C)n1 (stereo not drawn) [Example 214, 5-(tert-butyl)-N-(4-(6-(6-((4-(4-(2,6-dioxopiperidin-3-yl)phenyl)piperidin-1-yl)methyl)pyridin-2-yl)pyrrolo [2,1-f][1,2,4]triazin-4-yl)-2-methylbenzyl)-1,2,4-oxadiazole-3-carboxamide] cannot be ordered by DC50: under 100 nM for the first, under 100 nM for the second.

Cc1cc(-c2ncnn3cc(-c4csc(CN5CCC(c6ccc(C7CCC(=O)NC7=O)cc6)CC5)n4)cc23)ccc1CNC(=O)c1noc(C(C)(C)C)n1 (stereo not drawn) [Example 208, 5-(tert-butyl)-N-(4-(6-(2-((4-(4-(2,6-dioxopiperidin-3-yl)phenyl)piperidin-1-yl)methyl)thiazol-4-4-yl)pyrrolo[2,1-f][1,2,4]triazin-4-yl)-2-methylbenzyl)-1,2,4-oxadiazole-3-carboxamide] and Cc1cc(-c2ncnn3cc(-c4cn(C)c(CN5CCC(c6ccc(C7CCC(=O)NC7=O)cc6)CC5)n4)cc23)ccc1CNC(=O)c1noc(C(C)(C)C)n1 (stereo not drawn) [Example 209, 5-(tert-butyl)-N-(4-(6-(2-((4-(4-(2,6-dioxopiperidin-3-yl)phenyl)piperidin-1-yl)methyl)-1-methyl-1H-imidazol-4-yl)pyrrolo[2,1-f][1,2,4]triazin-4-yl)-2-methylbenzyl)-1,2,4-oxadiazole-3-carboxamide] cannot be ordered by DC50: under 100 nM for the first, under 100 nM for the second.

Compared with Cc1cc(-c2ncnn3cc(-c4cn5c(CN6CCC(c7ccc(C8CCC(=O)NC8=O)cc7)CC6)cnc5s4)cc23)ccc1CNC(=O)c1noc(C(C)(C)C)n1 (stereo not drawn) [Example 210, 5-(tert-butyl)-N-(4-(6-(5-((4-(4-(2,6-dioxopiperidin-3-yl)phenyl)piperidin-1-yl)methyl)imidazo[2,1-b]thiazol-2-yl)pyrrolo[2,1-f][1,2,4]triazin-4-yl)-2-methylbenzyl)-1,2,4-oxadiazole-3-carboxamide], Cc1cc(-c2ncnn3cc(-c4ncc(CN5CCC(c6ccc(C7CCC(=O)NC7=O)cc6)CC5)cc4C)cc23)ccc1CNC(=O)c1noc(C(C)(C)C)n1 (stereo not drawn) [Example 213, 5-(tert-butyl)-N-(4-(6-(5-((4-(4-(2,6-dioxopiperidin-3-yl)phenyl)piperidin-1-yl)methyl)-3-methylpyridin-2-yl)pyrrolo[2,1-f][1,2,4]triazin-4-yl)-2-methylbenzyl)-1,2,4-oxadiazole-3-carboxamide] is lower in DC50: 100 to 500 nM for the first, under 100 nM for the second.

Compared with Cc1cc(-c2ncnn3cc(-c4cccc5c(CN6CCC(c7ccc(C8CCC(=O)NC8=O)cc7)CC6)n(C)nc45)cc23)ccc1CNC(=O)c1noc(C(C)(C)C)n1 (stereo not drawn) [Example 212, 5-(tert-butyl)-N-(4-(6-(3-((4-(4-(2,6-dioxopiperidin-3-yl)phenyl)piperidin-1-yl)methyl)-2-methyl-2H-indazol-7-yl)pyrrolo[2,1-f][1,2,4]triazin-4-yl)-2-methylbenzyl)-1,2,4-oxadiazole-3-carboxamide], Cc1cc(-c2ncnn3cc(-c4cc(CN5CCC(c6ccc(C7CCC(=O)NC7=O)cc6)CC5)ccn4)cc23)ccc1CNC(=O)c1noc(C(C)(C)C)n1 (stereo not drawn) [Example 216, 5-(tert-butyl)-N-(4-(6-(4-((4-(4-(2,6-dioxopiperidin-3-yl)phenyl)piperidin-1-yl)methyl)pyridin-2-yl)pyrrolo[2,1-f][1,2,4]triazin-4-yl)-2-methylbenzyl)-1,2,4-oxadiazole-3-carboxamide] is lower in DC50: 100 to 500 nM for the first, under 100 nM for the second.

In the case of Cc1cc(-c2ncnn3cc(-c4nccc(CN5CCC(c6ccc(C7CCC(=O)NC7=O)cc6)CC5)n4)cc23)ccc1CNC(=O)c1noc(C(C)(C)C)n1 (stereo not drawn) [Example 215, 5-(tert-butyl)-N-(4-(6-(4-((4-(4-(2,6-dioxopiperidin-3-yl)phenyl)piperidin-1-yl)methyl)pyrimidin-2-yl)pyrrolo [2,1-f][1,2,4]triazin-4-yl)-2-methylbenzyl)-1,2,4-oxadiazole-3-carboxamide], the DC50 is reported as under 100 nM.
